Data published in patent publication US20070259861A1, “Combination therapy with non-selective COX inhibitors to prevent COX-related gastric injuries” (Pharmena North America Inc., priority 2006, published 2007).

Tests used:
[1] = tested on: prostacyclin (PGI2) release; settings: cited from earlier work; for release of prostacyclin: animal models
gastric mucosa = experiment: ASA- and WRS-induced gastric lesions in non-diabetic and streptozocin-diabetic rats; assay type: in vivo; settings: for rise of gastric blood flow (GBF): H2-gas clearance
Procedure: In this study, streptozocin (70 mg/kg injected intraperitoneally) was used to induce diabetes mellitus and non-diabetic and diabetic rats were pretreated 30 min prior to exposure to aspirin (ASA; 150 mg/kg in 0.1 N HCl i.g.) or 3.5 h of water immersion and restraint stress (WRS) with 1) vehicle (saline) or 2) MNA (2.5-50 mg/kg i.g.). The area and number of gastric lesions was determined by planimetry, gastric blood flow (GBF) was examined by H2-gas clearance technique, and mieloperoxidase (MPO) activity, activity of superoxide dismutase (SOD) and the malonyldialdehyde (MDA) concentration as an index of lipid peroxidation were determined in gastric mucosa using ELISA. The gene expression IL-1β and TNF-α in the gastric mucosa and their plasma levels were evaluated by RT-PCR and ELISA, respectively. […] This experiment is also described in an abstract published for Digestive Disease Week 2006 (May 20-25, 2006, Los Angeles, Calif.; http://www.medscape.com/viewprogram/5452).

[2] = ASA 150 mg/kg in 0.1 N HCl i.g.

Compound: 1-methyl-3-acetylpyridinium salt
- release of prostacyclin [1]: ability to induce the release of prostacyclin

Compound: C[n+]1cccc(C(N)=O)c1 [1-methylnicotinamide chloride]
- release of prostacyclin [1]: ability to induce the release of prostacyclin

Compound: C[n+]1cccc(C(=O)NCO)c1 [1-methyl-N′-(hydroxymethyl)nicotinamide]
- release of prostacyclin [1]: ability to induce the release of prostacyclin

Compound: CC(=O)Oc1ccccc1C(=O)O [ASA, aspirin]
- gastric lesions (gastric mucosa; [2]): typical gastric lesions
- reduction of GBF from basal (gastric mucosa; [2]): 35%
- increase of MPO activity (gastric mucosa; ASA 150 mg/kg in 0.1 N HCl i.g., gastric mucosa): 2-3 fold
- mucosal SOD activity (gastric mucosa; ASA-exposed animals without or with diabetes): significantly decreased
- MDA activity (lipid peroxidation) (gastric mucosa; ASA-exposed animals without or with diabetes, gastric mucosa): significantly increased
- plasma levels of TNF-α and IL-1 (gastric mucosa; ASA-exposed, ELISA): marked increase
- mRNAs for TNF-α and IL-1 (gastric mucosa; ASA-exposed, gastric mucosa, RT-PCR): overexpression

Compound: CNC(=O)c1cccnc1 [MNA, N-methylnicotinamide]
- decrease of mucosal SOD activity and increase of MDA (gastric mucosa; ASA- and WRS-exposed animals without or with diabetes): markedly attenuated
- WRS-induced gastric erosions (gastric mucosa; MNA 2.5-50 mg/kg i.g. 30 min before 3.5 h WRS, diabetic and non-diabetic rats): dose-dependently attenuated
- ASA-induced gastric erosions (gastric mucosa; MNA 2.5-50 mg/kg i.g. 30 min before ASA 150 mg/kg i.g., diabetic and non-diabetic rats): dose-dependently attenuated
- IL-1β and TNF-α (gastric mucosa; gastric mucosa expression (RT-PCR) and plasma levels (ELISA)): downregulation
- rise of gastric blood flow (GBF) (gastric mucosa; injured gastric mucosa): ~33%
- rise of gastric blood flow (GBF) (gastric mucosa; intact gastric mucosa): about 22%
- secretion of PGI2 ([1]; thrombolytic assay): stimulate the secretion of PGI2
